# Data as given in patent US9828360B2 (Array BioPharma Inc., priority 2012, dated 2017).
# Target: TrkA (Homo sapiens, UniProt P04629)
# Experiment: TrkA LanthaScreen Eu Kinase Binding Assay
# Parameters: 6HIS tagged cytoplasmic domain from Invitrogen, Cat. No. PV3144; purchased Invitrogen PV3144
# Details: averaged IC50 values, read-out: TrkA Enzyme IC50
# Description: TrkA binding activity was determined in a TrkA LanthaScreen™ Eu Kinase Binding Assay. 5 nM His-tagged recombinant human TrkA (6HIS tagged cytoplasmic domain from Invitrogen, Cat. No. PV3144) was incubated with 4 nM Alexa-Fluor® Tracer 236 (Invitrogen Cat. No. PV5592), 2 nM biotinylated anti-His (Invitrogen Cat. No. PV6090), and 2 nM europium-labeled Streptavidin (Invitrogen Cat. No. PV5899), in buffer (25 mM MOPS, pH 7.5, 5 mM MgCl2, 0.005% Triton X-100). Three fold serial dilutions of compounds of the invention in DMSO were added to a final percentage of 2% DMSO. After 60-minute incubation at 22° C., the reaction was measured using the EnVision mutlimode plate reader (PerkinElmer) via TR-FRET dual wavelength detection at […]. The percent of control was calculated using a ratiometric emission factor. The IC50 values were determined by fitting a four parameter model to the percent of control data.
# Table A provides averaged IC50 values for compounds of the invention when tested in the assay of Example A, where A represents an averaged IC50 value <100 nM; and B represents an averaged IC50 value from 100 to 1,000 nM.
# Sequence of TrkA (P04629 440-796 limits assumed): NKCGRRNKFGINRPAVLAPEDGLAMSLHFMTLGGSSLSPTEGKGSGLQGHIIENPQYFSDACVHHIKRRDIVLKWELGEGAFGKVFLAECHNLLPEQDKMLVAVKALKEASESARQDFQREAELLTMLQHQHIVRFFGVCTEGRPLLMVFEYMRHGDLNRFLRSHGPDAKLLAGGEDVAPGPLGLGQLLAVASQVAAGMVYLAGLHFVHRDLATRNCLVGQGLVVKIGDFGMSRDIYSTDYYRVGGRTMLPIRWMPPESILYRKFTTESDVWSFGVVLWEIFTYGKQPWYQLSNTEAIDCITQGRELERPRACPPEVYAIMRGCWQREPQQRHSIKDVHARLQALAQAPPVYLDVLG
row,SMILES,IC50 [nM]
1,"COCCN1C[C@@H](NC(=O)Nc2cc(S(C)(=O)=O)cnc2-c2ccccc2)[C@H](c2ccccc2)C1 (relative stereo) [Example 4, 1-(trans-1-(2-methoxyethyl)-4-phenylpyrrolidin-3-yl)-3-(5-(methylsulfonyl)-2-phenylpyridin-3-yl)urea]",100 to 1000
2,"COCCN1C[C@@H](NC(=O)Nc2cccnc2-c2ccccc2)[C@H](c2ccccc2)C1 (relative stereo) [Example 1, 1-(trans-1-(2-methoxyethyl)-4-phenylpyrrolidin-3-yl)-3-(2-phenylpyridin-3-yl)urea]",< 100
3,"COCCN1C[C@@H](NC(=O)Nc2sc(C(C)(C)O)nc2-c2ccccc2)[C@H](c2ccc(F)c(F)c2)C1 [Example 51, 1-((3S,4R)-4-(3,4-difluorophenyl)-1-(2-methoxyethyl)pyrrolidin-3-yl)-3-(2-(2-hydroxypropan-2-yl)-4-phenylthiazol-5-yl)urea]",< 100
4,"COCCOc1ccc(NC(=O)N[C@@H]2CN(CCOC)C[C@H]2c2ccc(F)c(F)c2)c(-c2ccccc2)n1 [Example 27, 1-((3S,4R)-4-(3,4-difluorophenyl)-1-(2-methoxyethyl)pyrrolidin-3-yl)-3-(6-(2-methoxyethoxy)-2-phenylpyridin-3-yl)urea]",< 100
5,"COCCN1C[C@@H](NC(=O)Nc2cc(=O)n(C)nc2-c2ccccc2)[C@H](c2ccc(F)c(F)c2)C1 [Example 34, 1-((3S,4R)-4-(3,4-difluorophenyl)-1-(2-methoxyethyl)pyrrolidin-3-yl)-3-(1-methyl-6-oxo-3-phenyl-1,6-dihydropyridazin-4-yl)urea]",100 to 1000
6,"COCCN1C[C@@H](NC(=O)Nc2sc(-c3ccccc3)nc2C)[C@H](c2ccc(F)c(F)c2)C1 [Example 45, 11-((3S,4R)-4-(3,4-difluorophenyl)-1-(2-methoxyethyl)pyrrolidin-3-yl)-3-(4-methyl-2-phenylthiazol-5-yl)urea]",< 100
7,"COCCN1C[C@@H](NC(=O)Nc2oc(C(C)C)nc2-c2ccccc2)[C@H](c2ccc(F)c(F)c2)C1 [Example 43, 1-((3S,4R)-4-(3,4-difluorophenyl)-1-(2-methoxyethyl)pyrrolidin-3-yl)-3-(2-isopropyl-4-phenyloxazol-5-yl)urea]",< 100
8,"COCCN1C[C@@H](NC(=O)Nc2sc(C(C)C)nc2-c2ccccc2)[C@H](c2ccc(F)c(F)c2)C1 [Example 47, 1-((3S,4R)-4-(3,4-difluorophenyl)-1-(2-methoxyethyl)pyrrolidin-3-yl)-3-(2-isopropyl-4-phenylthiazol-5-yl)urea]",< 100
9,"COCCN1C[C@@H](NC(=O)Nc2c(-c3ccccc3)nsc2C(N)=O)[C@H](c2ccc(F)c(F)c2)C1 [Example 36, 4-(3-((3S,4R)-4-(3,4-difluorophenyl)-1-(2-methoxyethyl)pyrrolidin-3-yl)ureido)-3-phenylisothiazole-5-carboxamide]",< 100
10,CCOc1ccc(NC(=O)N[C@@H]2CN(CCOC)C[C@H]2c2ccc(F)c(F)c2)c(-c2ccccc2)n1 [Example 25],< 100
11,"COCCN1C[C@@H](NC(=O)Nc2c(-c3ccccc3)noc2C)[C@H](c2ccccc2)C1 (relative stereo) [Example 37, 1-((trans)-1-(2-methoxyethyl)-4-phenylpyrrolidin-3-yl)-3-(5-methyl-3-phenylisoxazol-4-yl)urea]",100 to 1000
12,"COCCN1C[C@@H](NC(=O)Nc2ccn(C)c(=O)c2-c2ccccc2)[C@H](c2ccc(F)c(F)c2)C1 [Example 33, 1-((3S,4R)-4-(3,4-difluorophenyl)-1-(2-methoxyethyl)pyrrolidin-3-yl)-3-(1-methyl-2-oxo-3-phenyl-1,2-dihydropyridin-4-yl)urea]",100 to 1000
13,"COCCN1C[C@@H](NC(=O)Nc2ccc(C)nc2-c2ccccc2)[C@H](c2ccc(F)c(F)c2)C1 [Example 29, 1-((3S,4R)-4-(3,4-difluorophenyl)-1-(2-methoxyethyl)pyrrolidin-3-yl)-3-(6-methyl-2-phenylpyridin-3-yl)urea]",< 100
14,"COCCN1C[C@@H](NC(=O)Nc2ccc(-c3cccc(S(C)(=O)=O)c3)nc2C)[C@H](c2ccc(F)c(F)c2)C1 [Example 18, 1-((3S,4R)-4-(3,4-difluorophenyl)-1-(2-methoxyethyl)pyrrolidin-3-yl)-3-(2-methyl-6-(3-(methylsulfonyl)phenyl)pyridin-3-yl)urea]",100 to 1000
15,"COCCN1C[C@@H](NC(=O)Nc2ccc(Cl)nc2-c2ccccc2)[C@H](c2ccc(F)c(F)c2)C1 [Example 21, 1-(6-chloro-2-phenylpyridin-3-yl)-3-((3S,4R)-4-(3,4-difluorophenyl)-1-(2-methoxyethyl)pyrrolidin-3-yl)urea]",< 100
16,"COCCN1C[C@@H](NC(=O)Nc2cc(-c3cccnc3)cnc2C)[C@H](c2ccc(F)c(F)c2)C1 [Example 15, 1-((3S,4R)-4-(3,4-difluorophenyl)-1-(2-methoxyethyl)pyrrolidin-3-yl)-3-(6-methyl-[3,3′-bipyridin]-5-yl)urea]",100 to 1000
17,"COCCN1C[C@@H](NC(=O)Nc2c(-c3ccccc3)nc(C)n2C)[C@H](c2ccc(F)c(F)c2)C1 [Example 38, 1-((3S,4R)-4-(3,4-difluorophenyl)-1-(2-methoxyethyl)pyrrolidin-3-yl)-3-(1,2-dimethyl-4-phenyl-1H-imidazol-5-yl)urea]",< 100
18,COCCN1C[C@@H](NC(=O)Nc2cc(Br)cnc2-c2ccccc2)[C@H](c2ccccc2)C1 (relative stereo) [Example 3],< 100
19,"COCCN1C[C@@H](NC(=O)Nc2cc(=O)n(CC(F)(F)F)nc2-c2ccccc2)[C@H](c2ccc(F)c(F)c2)C1 [Example 35, 1-((3S,4R)-4-(3,4-difluorophenyl)-1-(2-methoxyethyl)pyrrolidin-3-yl)-3-(6-oxo-3-phenyl-1-(2,2,2-trifluoroethyl)-1,6-dihydropyridazin-4-yl)urea]",100 to 1000
20,COCCN1C[C@@H](NC(=O)Nc2sc(CO)nc2-c2ccccc2)[C@H](c2ccc(F)c(F)c2)C1 [Example 50],< 100
21,"COCCN1C[C@@H](NC(=O)Nc2sc(C(=O)N(C)C)nc2-c2ccccc2)[C@H](c2ccc(F)c(F)c2)C1 [Example 52, 5-(3-((3S,4R)-4-(3,4-difluorophenyl)-1-(2-methoxyethyl)pyrrolidin-3-yl)ureido)-N,N-dimethyl-4-phenylthiazole-2-carboxamide]",100 to 1000
22,"COCCN1C[C@@H](NC(=O)Nc2cc(Cl)cnc2-c2ccccc2)[C@H](c2ccccc2)C1 (relative stereo) [Example 2, 1-(5-chloro-2-phenylpyridin-3-yl)-3-(trans-1-(2-methoxyethyl)-4-phenylpyrrolidin-3-yl)urea]",< 100
23,"COCCN1C[C@@H](NC(=O)Nc2sc(C(=O)OC)nc2-c2ccccc2)[C@H](c2ccc(F)c(F)c2)C1 [Example 49, methyl 5-(3-((3S,4R)-4-(3,4-difluorophenyl)-1-(2-methoxyethyl)pyrrolidin-3-yl)ureido)-4-phenylthiazole-2-carboxylate]",100 to 1000
24,"COCCN1C[C@@H](NC(=O)Nc2cc(C)cnc2-c2ccccc2)[C@H](c2ccc(F)c(F)c2)C1 [Example 30, 1-((3S,4R)-4-(3,4-difluorophenyl)-1-(2-methoxyethyl)pyrrolidin-3-yl)-3-(5-methyl-2-phenylpyridin-3-yl)urea]",< 100
25,"COCCN1C[C@@H](NC(=O)Nc2ccc(-c3cccnc3)nc2C)[C@H](c2ccc(F)c(F)c2)C1 [Example 14, 1-((3S,4R)-4-(3,4-difluorophenyl)-1-(2-methoxyethyl)pyrrolidin-3-yl)-3-(6-methyl-[2,3′-bipyridin]-5-yl)urea]",< 100
26,"COCCN1C[C@@H](NC(=O)Nc2ccc(C)nc2-c2ccccc2)[C@H](c2cc(F)cc(F)c2)C1 [Example 31, 1-((3S,4R)-4-(3,5-difluorophenyl)-1-(2-methoxyethyl)pyrrolidin-3-yl)-3-(6-methyl-2-phenylpyridin-3-yl)urea]",< 100
27,"COCCN1C[C@@H](NC(=O)Nc2cc(Br)cnc2-c2ccccc2)[C@H](c2ccccc2)C1 [Example 5, 1-(5-bromo-2-phenylpyridin-3-yl)-3-((3S,4R)-1-(2-methoxyethyl)-4-phenylpyrrolidin-3-yl)urea]",< 100
